# Laboratory results taken from patent US20240165196A1, “Beta-Lactamase Inhibitors” (VIB VZW, priority 2021, published 2024).
# Ends that are not written are not given here.
# Assays:
# [1] = test system: strain containing NDM5a; assay: checkerboard assay (FICI), peptide and penicillin; type: cell-based, E. coli
# Text: (§1) FIGS. 4A-4K. […] IV—Intravenous, IP—Intraperitoneal, SC—Subcutaneously. The data shown is from a single experiment with 4 animals per group. […] (ns—non significant, #—P>0.05, *—P≤0.05, ***—P≤0.01, ****—P≤0.001). (FIG. 4G) FICI plot as in FIG. 2, for the E. coli strains indicated and the combination of penicillin and the TEM3.2 peptide. […] (FIG. 4J) Same as FIG. 4H for peptide BGAL. (FIG. 4K) Same as FIG. 4H for peptide P33.
# (§2) As we wondered about the generality of our peptide design approach, we set out to design a peptide to inactivate a structurally unrelated beta-lactamase. To this end we turned to the Ambler class B beta-lactamase NDM-1 that confers resistance to many beta-lactam antibiotics, including carbapenems, and strains carrying this enzyme was soon dubbed ‘superbugs’ that are only partially sensitive to colistin and tigecycline^49. This enzyme was first isolated from a patient in 200850, by 2010 could be detected in clinical isolates throughout the UK and India^51 and by 2015 was detected in over 70 countries worldwide^52.
# (§3) For the analysis of the synergy between the peptides with other antibiotics, a checkerboard assay was performed. Referring to the MICs of the selected peptides, checkerboard assay was designed to define their FICIs (Fractional Inhibitory Concentration Index) in combinations against different clinical isolates^62,63. Briefly, a total volume of 100 μL of Mueller-Hinton broth was distributed into each well of the 96-well plates. The first compound (peptide) of the combination was serially diluted vertically (128, 64, 32, 16, 8, 4, 2, 0 μg/mL) while the other drug (Beta-lactam or Kanamycin) was diluted horizontally in 96 well plate (from 3200 to 3 μg/mL). The total volume of each microtiter well was inoculated with 100 μL of MHB containing 1×10^6 CFU/mL bacteria. The plates were incubated at 37° C. for 24 h under aerobic conditions without shaking. Calculation of the FICI is used to analyze the results of the checkerboard assay by estimating the degree of synergistic effect. FICI is calculated as the sum of the individual fractional inhibitory concentrations (FICs) for each drug (where MIC A and MIC B denote the MIC of each drug alone, and MIC AA+B and MIC BA+B denote the concentrations of A and B in the drug combination). FICI=(MIC AA+B/MIC A)+(MIC BA+B/MIC B). With FICI≤0.5, the combination of antibiotics considered as a synergistic effect, 0.5<FICI≤1 indicates additivity, FICI>1 indicates indifference.
# [2] = test system: strain containing NDM5b; assay: checkerboard assay (FICI), peptide and penicillin; type: cell-based, E. coli
# Text: as §1, §2, §3
# [3] = test system: strain containing TEM-1; assay: checkerboard assay (FICI), peptide and penicillin; type: cell-based, E. coli; details: strain TEM-1
# Text: as §1, §2, §3
# [4] = test system: E. coli SHV-11; assay: checkerboard assay (FICI), peptide versus penicillin G; type: cell-based; details: strain with SHV-11; FICI below 0.5 = synergy
# Text: (§4) FIGS. 2A-2M. (FIG. 2A) TEM mutations and their effects on stability (total energy) as predicted by FoldX. […] Dashed line indicates a total energy difference of 0.5 kcal/mol, the FoldX cut-off above which mutations are considered to be destabilizing. (FIG. 2B) Barplot mapping mutations in (FIG. 2A) to the TEM sequence and indicating occurrence. […] The bar heights correspond to the number of times a mutation occurs across different TEM variants (right-hand y-axis). The color coding is identical to that in (FIG. 2A). Red line indicates the TANGO scores (indicated on the left-hand y-axis), with peaks corresponding to APRs. (FIG. 2C) Mapping of mutations in (FIG. 2A) and (FIG. 2B) to the TEM structure (pdb 1xpb). Protein surface is shown in gray, color coding of mutations is identical to (FIG. 2A) and (FIG. 2B). (FIGS. 2D, 2E, and 2F) Temperature-dependent evolution of the Right-Angle Light Scattering (RALS) intensity during a temperature ramp, similar as in FIG. 1F for key mutants of TEM1, namely TEM-10 (FIG. 2D), TEM-30 (FIG. 2E) and TEM-155 (FIG. 2F). Experiments were shown in triplicate, single repeat is shown. (FIG. 2G) Schematic representation of the structure of the peptides. APR—Aggregation Prone Region, R—Arginine. (FIG. 2H) Ribbon representation of the superposition of the crystal structures of TEM (green, pdb id 1bt5) and SHV (blue, pdb id 1shv). The catalytic site of the beta-lactamase activity is indicated and location of APR3 is shown in red. (FIG. 2I) TANGO aggregation score and alignment of APR3 in TEM and SHV. (FIG. 2J) Fractional Inhibitory Concentration Index determination of 5 peptides versus penicillin on E. coli TEM-104. […] FICI values below 0.5 indicate synergy. Values between 0.5 and 1.0 indicate additivity and values greater than 1 indicate indifference between the combined substances. (FIG. 2K) Same as J for E. coli SHV-11. (FIG. 2L) Same as J for a kanamycin resistant E. coli strain. (FIG. 2M) FICI values for the TEM3.2 peptide on a range of E. coli strains.
# (§5) Moreover, the core sequence of peptide TEM3.0 also occurs in the structurally related SHV β-lactamase ([…]). Although the C-terminal extension residues H and N have been replaced with physicochemically similar R and Q, respectively (FIG. 2H). […] To quantify the synergy between these four peptides and penicillin G, we performed a so-called checkerboard assay, which allows to compare the activity of two test compounds co-incubated (here peptide and a beta-lactam antibiotic), to their individual activities in isolation. The result from the assay is quantified as the Fractional Inhibitory Concentration Index (FICI), and it is generally accepted that values below 0.5 indicate synergistic effects between the compounds. As a control, we generated a peptide using the same design, but based on a previously identified APR from the β-galactosidase enzyme (BGAL)^16 from E. coli (APR=SVIIWSL, peptide sequence=[…]) that has a MIC value>100 μg/mL on E. coli strain UZ_TEM104. We evaluated the synergy of the peptides with penicillin G in clinical E. coli isolates carrying the TEM ([…]) or SHV enzymes ([…]). […] As a further control, we also performed a checkerboard assay with an E. coli strain that was resistant to the aminoglycoside kanamycin and observed no synergy between this unrelated antibiotic and our peptides (FIG. 2L), in line with the notion that we are inhibiting a beta-lactamase but not the aminoglycoside degrading enzyme. […] The list of strains included some that harbored only TEM or SHV, but others contained additional Ambler Class A (CTX-M or […]) or Class B (VIM and NDM) beta-lactamases. […] In contrast, the presence of the NDM-type […], that does have a high affinity for Ampicillin and that is completely distinct in sequence and structure from TEM and SHV, seemed to completely prevent the effect of the peptide on the beta-lactam sensitivity of the strains in which it occurred (see also further). […]
# [5] = test system: E. coli TEM-104; assay: as above; type: cell-based; details: strain with TEM; FICI below 0.5 = synergy
# Text: as §4, §5
sequence,measurement,setting,value
RLAAALMLRRPRAQILNWIRR (NDM1-2),synergy with penicillin (FICI),[1],synergy
same,synergy with penicillin (FICI),[2],synergy
same,synergy with penicillin (FICI),[3],not in a strain containing TEM-1
RSVIIWSLGRRPRSVIIWSLGRR [BGAL],synergy with penicillin G (FICI),[4],no synergy
same,synergy with penicillin G (FICI),[5],no synergy
same,synergy with penicillin (FICI),[1],neither showed synergy
same,synergy with penicillin (FICI),[2],neither showed synergy
same,synergy with penicillin (FICI),[3],neither showed synergy
RTAQILNWRRPRTAQILNWRR (NDM1-1),synergy with penicillin (FICI),[1],synergy
same,synergy with penicillin (FICI),[2],synergy
same,synergy with penicillin (FICI),[3],not in a strain containing TEM-1
